{
  "source": "patent US20210138006A1",
  "about": "“Systems, Methods, and Compositions for Treating or Preventing Bacterial Infection and for Reducing or Preventing Bacterial Overpopulation” (BRIGHAM YOUNG UNIVERSITY, priority 2018, published 2021)",
  "system": "honeybees (Apis mellifera)",
  "assay_type": "in vivo",
  "details": "after fall inspection",
  "excerpt": "Treatment Study: This study provides disclosure relating to the potential effectiveness of using phages, such as PL phages, when treating healthy beehives that are not at risk for AFB.\nThis combined not-at-risk preventative and safety treatment study using PL phages occurred when 96 beehives were observed and assigned to one of three groups to either be control hives, hives treated preventative PL phages, or hives treated with preventative Tylan antibiotic.\nStudy Design: Test animals—A total of 96 colonies (hives) of honeybees (Apis mellifera) were previously established in two near-by apiaries. Each of the colonies had to meet the following four criteria: a viable laying queen, contain approximately 40,000 or more adult worker bees, have uncapped brood, and have no visible signs of American Foulbrood. All 96 hives met the criteria and were included in the study.\nRoute of administration: Oral.\nTreatment: PL phage cocktail diluted in sugar water.\nObjective and design: The objective was to determine the comparative health of beehives left without a treatment to hives prophylactically treated with PL phages or Tylan antibiotic for the prevention of AFB in a longitudinal study.\nAll 96 beehives were inspected in spring and fall using a 3-brood rack approach, wherein observation of three full brood racks constituted a complete inspection to look for AFB. Hives that looked unusual were inspected beyond the 3-brood racks. For each hive observation upon signs of AFB, the colonies were to be rated on a 0-3 scale based on a modification of the method proposed by Hitchcock et al. (1970). Frames were rated as follows:\nFor each hive inspected, other observations were also noted, such as signs of chalkbrood, European Foulbrood (EFB), apparent mite infestation, queen health (based on laying patterns, etc.), other obvious disorders, and any colony loss.\nResults: AFB was not detected in any hive in any group throughout the study. […] For this study, a hive was counted as “diseased” if it had chalkbrood, had European Foulbrood, or struggled to thrive. […]",
  "data": [
    {"smiles": "CC[C@H]1OC(=O)C[C@@H](O)[C@H](C)[C@@H](O[C@@H]2O[C@H](C)[C@@H](O[C@H]3C[C@@](C)(O)[C@@H](O)[C@H](C)O3)[C@H](N(C)C)[C@H]2O)[C@@H](CC=O)C[C@@H](C)C(=O)/C=C/C(C)=C/[C@@H]1CO[C@@H]1O[C@H](C)[C@@H](O)[C@@H](OC)[C@H]1OC", "note": "[Tylan]", "values": [
      {"measurement": "% Healthy Hives (positive health survival rate)", "setting": "32 hives per group, control 90.6%", "value": 62.5, "unit": "%"},
      {"measurement": "Diseased or Dead Hives", "setting": "of 32 hives per group, control 3", "value": 12},
      {"measurement": "hives remained healthy", "setting": "of 32 hives per group, control 29", "value": 20}
    ]}
  ]
}
